Test results reported in ChEMBL document CHEMBL3734713, “4-Thiazolidinone derivatives as potent antimicrobial agents: microwave-assisted synthesis, biological evaluation and docking studies” (2015).
Values after ≈ are worked out from the molar mass of the structure shown.

Legend:
Aspergillus fumigatus = test: Antifungal activity against Aspergillus fumigatus ATCC 1022 assessed as growth inhibition after 72 hrs at 28 degC by serial dilution method; type: functional; conditions: for MIC: Aspergillus fumigatus, ATCC 1022, 72 h
Pseudomonas aeruginosa = test: Antibacterial activity against Pseudomonas aeruginosa ATCC 27853 assessed as growth inhibition after 24 hrs at 37 degC by iodonitrotetrazolium chloride staining based microdilution broth assay; type: functional; conditions: ATCC 27853, 24 h
Bacillus cereus = test: Antibacterial activity against clinical isolates of Bacillus cereus assessed as growth inhibition after 24 hrs at 37 degC by iodonitrotetrazolium chloride staining based microdilution broth assay; type: functional
[1] = target: Human immunodeficiency virus type 1 reverse transcriptase (Human immunodeficiency virus 1) (UniProt Q72547); test: Inhibition of HIV1 reverse transcriptase assessed as residual enzyme activity by measuring reduction in [3H]dTTP incorporation into poly(rA)-oligo(dT) at 4 uM incubated for 15 mins by scintillation counting method relative to control
Aspergillus ochraceus = test: Antifungal activity against Aspergillus ochraceus ATCC 12066 assessed as growth inhibition after 72 hrs at 28 degC by serial dilution method; type: functional; conditions: for MIC: Aspergillus ochraceus, ATCC 12066, 72 h
Enterobacter cloacae = test: Antibacterial activity against human isolate of Enterobacter cloacae assessed as growth inhibition after 24 hrs at 37 degC by iodonitrotetrazolium chloride staining based microdilution broth assay; type: functional
Aspergillus niger = test: Antifungal activity against Aspergillus niger ATCC 6275 assessed as growth inhibition after 72 hrs at 28 degC by serial dilution method; type: functional; conditions: for MIC: Aspergillus niger, ATCC 6275, 72 h
Micrococcus flavus = test: Antibacterial activity against Micrococcus flavus ATCC 10240 assessed as growth inhibition after 24 hrs at 37 degC by iodonitrotetrazolium chloride staining based microdilution broth assay; type: functional; conditions: ATCC 10240, 24 h
Candida albicans = test: Antifungal activity against Candida albicans ATCC 10231 assessed as growth inhibition after 72 hrs at 28 degC by serial dilution method; type: functional; conditions: for MIC: Candida albicans, ATCC 10231, 72 h
Listeria monocytogenes = test: Antibacterial activity against Listeria monocytogenes NCTC 7973 assessed as growth inhibition after 24 hrs at 37 degC by iodonitrotetrazolium chloride staining based microdilution broth assay; type: functional; conditions: NCTC 7973, 24 h
Salmonella typhimurium = test: Antibacterial activity against Salmonella typhimurium ATCC 13311 assessed as growth inhibition after 24 hrs at 37 degC by iodonitrotetrazolium chloride staining based microdilution broth assay; type: functional, Salmonella enterica subsp. enterica serovar Typhimurium; conditions: Salmonella enterica, ATCC 13311, 24 h
Penicillium ochrochloron = test: Antifungal activity against Penicillium ochrochloron ATCC 9112 assessed as growth inhibition after 72 hrs at 28 degC by serial dilution method; type: functional; conditions: for MIC: Penicillium ochrochloron, ATCC 9112, 72 h
Staphylococcus aureus = test: Antibacterial activity against Staphylococcus aureus ATCC 6538 assessed as growth inhibition after 24 hrs at 37 degC by iodonitrotetrazolium chloride staining based microdilution broth assay; type: functional; conditions: ATCC 6538, 24 h
Escherichia coli = test: Antibacterial activity against Escherichia coli ATCC 35210 assessed as growth inhibition after 24 hrs at 37 degC by iodonitrotetrazolium chloride staining based microdilution broth assay; type: functional; conditions: ATCC 35210, 24 h
Aspergillus versicolor = test: Antifungal activity against Aspergillus versicolor ATCC 11730 assessed as growth inhibition after 72 hrs at 28 degC by serial dilution method; type: functional; conditions: for MIC: Aspergillus versicolor, ATCC 11730, 72 h
Talaromyces funiculosus = test: Antifungal activity against Penicillium funiculosum ATCC 36839 assessed as growth inhibition after 72 hrs at 28 degC by serial dilution method; type: functional; conditions: for MIC: Talaromyces funiculosus, ATCC 36839, 72 h
Trichoderma viride = test: Antifungal activity against Trichoderma viride IAM 5061 assessed as growth inhibition after 72 hrs at 28 degC by serial dilution method; type: functional; conditions: for MIC: Trichoderma viride, IAM 5061, 72 h

Row | MIC (Aspergillus fumigatus) | MIC (Pseudomonas aeruginosa) | MIC (Bacillus cereus) | Activity [1] | MIC (Aspergillus ochraceus) | MIC (Enterobacter cloacae) | MIC (Aspergillus niger) | MIC (Micrococcus flavus) | MIC (Candida albicans) | MIC (Listeria monocytogenes) | SMILES | MFC99.5 (Aspergillus fumigatus) | MBC (Pseudomonas aeruginosa) | MBC (Bacillus cereus) | MFC99.5 (Aspergillus ochraceus) | MBC (Enterobacter cloacae) | MFC99.5 (Aspergillus niger) | MBC (Micrococcus flavus) | MFC99.5 (Candida albicans) | MBC (Listeria monocytogenes) | MBC (Salmonella typhimurium) | also measured
1 | 210 µM (≈ 99.9 µg/mL) | 420 µM (≈ 200 µg/mL) | 105 µM (≈ 49.9 µg/mL) | 59.9% | 105 µM (≈ 50 µg/mL) | 20 µM (≈ 9.51 µg/mL) | 210 µM (≈ 99.9 µg/mL) | 210 µM (≈ 99.9 µg/mL) | 526 µM (≈ 250 µg/mL) | 420 µM (≈ 200 µg/mL) | O=C1CSC(c2ccc(Br)cc2)N1c1nc(C23CC4CC(CC(C4)C2)C3)cs1 (centres undefined) | 21.02 ×10⁻² umol/ml | 630 µM (≈ 300 µg/mL) | 210 µM (≈ 99.9 µg/mL) | 42.04 ×10⁻² umol/ml | 420 µM (≈ 200 µg/mL) | 31.54 ×10⁻² umol/ml | 420 µM (≈ 200 µg/mL) | 73.6 ×10⁻² umol/ml | 630 µM (≈ 300 µg/mL) | 420 µM (≈ 200 µg/mL) | MIC (Salmonella typhimurium): 210 µM (≈ 99.9 µg/mL); MFC99.5 (Penicillium ochrochloron): 21.02 ×10⁻² umol/ml; MIC (Penicillium ochrochloron): 210 µM (≈ 99.9 µg/mL); MBC (Staphylococcus aureus): 420 µM (≈ 200 µg/mL); MIC (Staphylococcus aureus): 420 µM (≈ 200 µg/mL); MBC (Escherichia coli): 210 µM (≈ 99.9 µg/mL); MIC (Escherichia coli): 210 µM (≈ 99.9 µg/mL); MFC99.5 (Aspergillus versicolor): 10.51 ×10⁻² umol/ml; MIC (Aspergillus versicolor): 105 µM (≈ 50 µg/mL); MFC99.5 (Talaromyces funiculosus): 52.58 ×10⁻² umol/ml; MIC (Talaromyces funiculosus): 210 µM (≈ 99.9 µg/mL); MFC99.5 (Trichoderma viride): 10.51 ×10⁻² umol/ml; MIC (Trichoderma viride): 105 µM (≈ 50 µg/mL)
2 | 215 µM (≈ 100 µg/mL) | 430 µM (≈ 200 µg/mL) | 430 µM (≈ 200 µg/mL) | 52.5% | 107 µM (≈ 50 µg/mL) | 430 µM (≈ 200 µg/mL) | 215 µM (≈ 100 µg/mL) | 215 µM (≈ 100 µg/mL) | 430 µM (≈ 200 µg/mL) | 430 µM (≈ 200 µg/mL) | O=C1CSC(c2c(Cl)cccc2Cl)N1c1nc(C23CC4CC(CC(C4)C2)C3)cs1 (centres undefined) | 53.71 ×10⁻² umol/ml | 645 µM (≈ 300 µg/mL) | 645 µM (≈ 300 µg/mL) | 53.71 ×10⁻² umol/ml | 430 µM (≈ 200 µg/mL) | 32.22 ×10⁻² umol/ml | 430 µM (≈ 200 µg/mL) | 64.45 ×10⁻² umol/ml | 860 µM (≈ 400 µg/mL) | 430 µM (≈ 200 µg/mL) | MIC (Salmonella typhimurium): 215 µM (≈ 100 µg/mL); MFC99.5 (Penicillium ochrochloron): 32.22 ×10⁻² umol/ml; MIC (Penicillium ochrochloron): 215 µM (≈ 100 µg/mL); MBC (Staphylococcus aureus): 645 µM (≈ 300 µg/mL); MIC (Staphylococcus aureus): 430 µM (≈ 200 µg/mL); MBC (Escherichia coli): 430 µM (≈ 200 µg/mL); MIC (Escherichia coli): 215 µM (≈ 100 µg/mL); MFC99.5 (Aspergillus versicolor): 32.22 ×10⁻² umol/ml; MIC (Aspergillus versicolor): 215 µM (≈ 100 µg/mL); MFC99.5 (Talaromyces funiculosus): 53.71 ×10⁻² umol/ml; MIC (Talaromyces funiculosus): 215 µM (≈ 100 µg/mL); MFC99.5 (Trichoderma viride): 21.48 ×10⁻² umol/ml; MIC (Trichoderma viride): 215 µM (≈ 100 µg/mL)
3 | 11.7 µM (≈ 4.99 µg/mL) | 30.6 µM (≈ 13.1 µg/mL) | 16.3 µM (≈ 6.95 µg/mL) | 100% | 1.4 µM (≈ 0.597 µg/mL) | 30.6 µM (≈ 13.1 µg/mL) | 2.9 µM (≈ 1.24 µg/mL) | 62.5 µM (≈ 26.7 µg/mL) | 11.7 µM (≈ 4.99 µg/mL) | 62.5 µM (≈ 26.7 µg/mL) | COc1ccc(C2SCC(=O)N2c2nc(C34CC5CC(CC(C5)C3)C4)cs2)cc1 (centres undefined) | 2.34 ×10⁻² umol/ml | 62.5 µM (≈ 26.7 µg/mL) | 30.6 µM (≈ 13.1 µg/mL) | 0.29 ×10⁻² umol/ml | 125 µM (≈ 53.3 µg/mL) | 0.58 ×10⁻² umol/ml | 125 µM (≈ 53.3 µg/mL) | 2.34 ×10⁻² umol/ml | 125 µM (≈ 53.3 µg/mL) | 62.5 µM (≈ 26.7 µg/mL) | MIC (Salmonella typhimurium): 30.6 µM (≈ 13.1 µg/mL); MFC99.5 (Penicillium ochrochloron): 0.14 ×10⁻² umol/ml; MIC (Penicillium ochrochloron): 0.9 µM (≈ 0.384 µg/mL); MBC (Staphylococcus aureus): 62.5 µM (≈ 26.7 µg/mL); MIC (Staphylococcus aureus): 30.6 µM (≈ 13.1 µg/mL); MBC (Escherichia coli): 125 µM (≈ 53.3 µg/mL); MIC (Escherichia coli): 30.6 µM (≈ 13.1 µg/mL); MFC99.5 (Aspergillus versicolor): 0.58 ×10⁻² umol/ml; MIC (Aspergillus versicolor): 2.9 µM (≈ 1.24 µg/mL); MFC99.5 (Talaromyces funiculosus): 0.58 ×10⁻² umol/ml; MIC (Talaromyces funiculosus): 2.9 µM (≈ 1.24 µg/mL); MFC99.5 (Trichoderma viride): 0.29 ×10⁻² umol/ml; MIC (Trichoderma viride): 1.4 µM (≈ 0.597 µg/mL)
